Measured values reported in ChEMBL document CHEMBL1156829 (Proc Natl Acad Sci U S A, 2008).

Columns and labels:
Plasmodium falciparum [1] = assay: NOVARTIS: Inhibition of Plasmodium falciparum W2 (drug-resistant) proliferation in erythrocyte-based infection assay; assay type: functional, organism-based; details: Plasmodium falciparum, W2; read-out: EC50
[2] = NOVARTIS: Cytotoxicity against human hepatocellular carcinoma cell line (Huh7); assay type: toxicity, cell-based, Huh-7; details: Huh7 cells (hepatocellular carcinoma cell line)
Plasmodium falciparum [3] = assay: NOVARTIS: Inhibition of Plasmodium falciparum 3D7 (drug-susceptible) proliferation in erythrocyte-based infection assay; assay type: functional, organism-based; details: Plasmodium falciparum, 3D7

## COc1ccc(-c2nc(NC(=O)CS(=O)(=O)c3ccc(F)cc3)sc2C)cc1
Plasmodium falciparum [1]
  EC50: 0.56 µM
[2]
  CC50: 44.1 µM
Plasmodium falciparum [3]
  EC50: 0.212 µM

## CCOc1ccc(Nc2cc(C)nc(Nc3ccc(OCC)cc3)n2)cc1
Plasmodium falciparum [1]
  EC50: 0.124 µM
[2]
  CC50: 9.85 µM
Plasmodium falciparum [3]
  EC50: 0.104 µM

## Cc1cc(Nc2ccccc2)nc(Nc2ccccc2)n1
Plasmodium falciparum [1]
  EC50: 0.248 µM
[2]
  CC50: 20 µM
Plasmodium falciparum [3]
  EC50: 0.259 µM

## COc1ccc2nc(Nc3nc(-c4ccccn4)cs3)sc2c1
Plasmodium falciparum [1]
  EC50: 0.0935 µM
[2]
  CC50: 7.31 µM
Plasmodium falciparum [3]
  EC50: 0.0918 µM

## CCCOC(=O)C1=C(C)NC2=C(C(=O)CC(c3ccc(OC)c(OC)c3)C2)C1c1ccc(O)c(OCC)c1 (stereo unspecified)
Plasmodium falciparum [1]
  EC50: 1.28 µM
[2]
  CC50: > 100 µM
Plasmodium falciparum [3]
  EC50: 2.4 µM

## O=C(NCc1ccc(Cl)cc1)C(=O)NCc1ccccn1
Plasmodium falciparum [1]
  EC50: 0.105 µM
[2]
  CC50: 8.24 µM
Plasmodium falciparum [3]
  EC50: 1.32 µM

## Oc1ccc(Br)cc1CN1CCN(c2ccccn2)CC1
Plasmodium falciparum [1]
  EC50: 0.438 µM
[2]
  CC50: 34.6 µM
Plasmodium falciparum [3]
  EC50: 3.17 µM

## CC(=O)N(C1=C(N(C)C)C(=O)c2ccccc2C1=O)c1ccc(Cl)cc1
Plasmodium falciparum [1]
  EC50: 0.0691 µM
[2]
  CC50: 5.46 µM
Plasmodium falciparum [3]
  EC50: 0.0314 µM

## CCc1ccccc1N(CC(=O)NC1CCCCC1)C(=O)CCC(=O)Nc1ccccn1
Plasmodium falciparum [1]
  EC50: 1.27 µM
[2]
  CC50: > 100 µM
Plasmodium falciparum [3]
  EC50: 0.835 µM

## Nc1ccc2nc3ccc(N)cc3[s+]c2c1
Plasmodium falciparum [1]
  EC50: 0.143 µM
[2]
  CC50: 11.6 µM
Plasmodium falciparum [3]
  EC50: 0.0857 µM

## CCOc1ccc(C(=O)C(C)[n+]2cc(-c3ccc(Cl)cc3)n3c2CCC3)cc1 (stereo unspecified)
Plasmodium falciparum [1]
  EC50: 0.976 µM
[2]
  CC50: > 78.3 µM
Plasmodium falciparum [3]
  EC50: 1.5 µM

## O=c1[nH]c(SCC(O)c2ccc(Cl)c(Cl)c2)nc2sc3ccccc3c12 (stereo unspecified)
Plasmodium falciparum [1]
  EC50: 0.124 µM
[2]
  CC50: > 10 µM
Plasmodium falciparum [3]
  EC50: 0.663 µM

## CN1CCN=C1c1ccc(NC(=O)Nc2ccc(NC(=O)Nc3ccc(C4=NCCN4C)cc3)cc2)cc1
Plasmodium falciparum [1]
  EC50: 0.124 µM
[2]
  CC50: > 10 µM
Plasmodium falciparum [3]
  EC50: 0.158 µM

## Cc1ccc(-c2cc(N3CCCC3CO)n3nccc3n2)cc1 (stereo unspecified)
Plasmodium falciparum [1]
  EC50: 1.25 µM
[2]
  CC50: > 100 µM
Plasmodium falciparum [3]
  EC50: 1.14 µM

## COc1ccc(CNCCN2CCN(c3ccc(C)cc3)C[C@@H]2c2ccccc2)cc1
Plasmodium falciparum [1]
  EC50: 0.125 µM
[2]
  CC50: > 10 µM
Plasmodium falciparum [3]
  EC50: 0.909 µM

## COc1cc(OC)cc(C(=O)NCC2Cc3cc(Cl)cc(-c4ccncc4)c3O2)c1 (stereo unspecified)
Plasmodium falciparum [1]
  EC50: 0.537 µM
[2]
  CC50: 44.1 µM
Plasmodium falciparum [3]
  EC50: 0.368 µM

## N#Cc1cccc(C=CC(=O)O)c1
Plasmodium falciparum [1]
  EC50: 1.22 µM
[2]
  CC50: > 100 µM
Plasmodium falciparum [3]
  EC50: > 12.5 µM

## COc1ccc2c(c1)-c1c(ssc1=S)C(C)(C)N2C(=O)c1cccc(Cl)c1
Plasmodium falciparum [1]
  EC50: > 1.25 µM
[2]
  CC50: > 100 µM
Plasmodium falciparum [3]
  EC50: 1.09 µM

## Cc1nc(-c2ccc[n+](C)c2)sc1C(=O)C=Cc1ccc(Cl)cc1
Plasmodium falciparum [1]
  EC50: 0.797 µM
[2]
  CC50: 65.2 µM
Plasmodium falciparum [3]
  EC50: 0.341 µM

## O=C1CSC2=NCN(c3cccc(Cl)c3)CN12
Plasmodium falciparum [1]
  EC50: 1.26 µM
[2]
  CC50: > 100 µM
Plasmodium falciparum [3]
  EC50: > 12.5 µM

## CCCOC(=O)CSc1nc(N)c(C#N)c(-c2ccco2)c1C#N
Plasmodium falciparum [1]
  EC50: 1.22 µM
[2]
  CC50: > 100 µM
Plasmodium falciparum [3]
  EC50: 1.89 µM

## COc1ccc(S(=O)(=O)N2CCCCC2C(=O)NC(CN2CCCC2)c2ccccc2)cc1 (stereo unspecified)
Plasmodium falciparum [1]
  EC50: 0.122 µM
[2]
  CC50: > 10 µM
Plasmodium falciparum [3]
  EC50: 0.168 µM

## C1=C(c2ccccc2)CCN(c2ncnc3c2nc2n3CCCCC2)C1
Plasmodium falciparum [1]
  EC50: 1.08 µM
[2]
  CC50: > 85.8 µM
Plasmodium falciparum [3]
  EC50: 1.29 µM

## CCN(CC)CCCNCC(=O)N1c2ccccc2Sc2ccccc21
Plasmodium falciparum [1]
  EC50: 1.25 µM
[2]
  CC50: > 100 µM
Plasmodium falciparum [3]
  EC50: > 12.5 µM

## Cc1ccc2nc(Nc3ncc4c(n3)CC(C)(C)CC4=O)nc(C)c2c1
Plasmodium falciparum [1]
  EC50: 1.25 µM
[2]
  CC50: > 100 µM
Plasmodium falciparum [3]
  EC50: > 12.5 µM

## COc1ccc(Nc2nc(NCc3ccccc3)c3ccccc3n2)cc1
Plasmodium falciparum [1]
  EC50: 0.106 µM
[2]
  CC50: 8.67 µM
Plasmodium falciparum [3]
  EC50: 0.212 µM

## COc1cc(C(=O)NC(c2cccs2)c2cc(Cl)c3cccnc3c2O)cc(OC)c1OC (stereo unspecified)
Plasmodium falciparum [1]
  EC50: 1.23 µM
[2]
  CC50: > 100 µM
Plasmodium falciparum [3]
  EC50: 1.49 µM

## O=C(Nc1ccc2oc(-c3ccccc3F)nc2c1)c1ccc([N+](=O)[O-])o1
Plasmodium falciparum [1]
  EC50: 1.26 µM
[2]
  CC50: > 100 µM
Plasmodium falciparum [3]
  EC50: > 12.5 µM

## Cc1ccc(Nc2cc(C)nc(NCc3ccccc3)n2)cc1
Plasmodium falciparum [1]
  EC50: 0.132 µM
[2]
  CC50: 10.5 µM
Plasmodium falciparum [3]
  EC50: 0.112 µM

## Cc1ccc(-c2noc(C3CCN(C(=O)Nc4ccc(C#N)cc4)CC3)n2)o1
Plasmodium falciparum [1]
  EC50: 1.26 µM
[2]
  CC50: > 100 µM
Plasmodium falciparum [3]
  EC50: 1.3 µM

## Cc1cc(C)c(S(=O)(=O)N2CCCC2CNC(=O)c2cccc([N+](=O)[O-])c2)c(C)c1 (stereo unspecified)
Plasmodium falciparum [1]
  EC50: 1.23 µM
[2]
  CC50: > 100 µM
Plasmodium falciparum [3]
  EC50: 0.914 µM

## O=[N+]([O-])c1cccc(C(Nc2nccs2)c2ccc3cccnc3c2O)c1 (stereo unspecified)
Plasmodium falciparum [1]
  EC50: 0.198 µM
[2]
  CC50: 16.1 µM
Plasmodium falciparum [3]
  EC50: 0.294 µM

## CCCc1c2ccc(C)n2cc[n+]1CC(=O)c1ccc(OC)cc1
Plasmodium falciparum [1]
  EC50: 1.23 µM
[2]
  CC50: > 100 µM
Plasmodium falciparum [3]
  EC50: 0.806 µM

## CCOC(=O)C1=C(C)NC2=C(C(=O)CC(C)(C)C2)C1c1ccccn1 (stereo unspecified)
Plasmodium falciparum [1]
  EC50: 1.26 µM
[2]
  CC50: > 100 µM
Plasmodium falciparum [3]
  EC50: > 12.5 µM

## Clc1cccc(Nc2nc(NCc3ccco3)c3ccccc3n2)c1
Plasmodium falciparum [1]
  EC50: 0.203 µM
[2]
  CC50: 16.1 µM
Plasmodium falciparum [3]
  EC50: 0.112 µM

## COc1cccc(NC(=O)c2sc3ncn(CC(=O)N4CCN(c5ccccn5)CC4)c(=O)c3c2C)c1
Plasmodium falciparum [1]
  EC50: 1.24 µM
[2]
  CC50: > 100 µM
Plasmodium falciparum [3]
  EC50: > 12.5 µM

## COc1ccc(N)cc1NC(=O)c1ccc(Cl)cc1Cl
Plasmodium falciparum [1]
  EC50: 0.0879 µM
[2]
  CC50: 6.99 µM
Plasmodium falciparum [3]
  EC50: > 0.89 µM

## COc1ccc([N+](=O)[O-])cc1C=NNc1nc(Nc2ccc([N+](=O)[O-])cc2)nc(N2CCN(C)CC2)n1
Plasmodium falciparum [1]
  EC50: 0.388 µM
[2]
  CC50: 30.7 µM
Plasmodium falciparum [3]
  EC50: 0.859 µM

## COC(=O)CNC(c1ccccc1)c1cc(Br)ccc1NC(=O)C(Cc1ccccc1)NC(=O)OCc1ccccc1 (stereo unspecified)
Plasmodium falciparum [1]
  EC50: 1.28 µM
[2]
  CC50: > 100 µM
Plasmodium falciparum [3]
  EC50: 4.08 µM

## CC(Sc1nnc2c3ccccc3n(Cc3ccccc3)c2n1)C(=O)N1CCN(C(=O)C(c2ccccc2)c2ccccc2)C(C)C1 (stereo unspecified)
Plasmodium falciparum [1]
  EC50: 0.127 µM
[2]
  CC50: > 10 µM
Plasmodium falciparum [3]
  EC50: 0.914 µM

## CCOC(=O)c1c(C)[nH]c2c1cc(O)c1ccccc12
Plasmodium falciparum [1]
  EC50: 0.126 µM
[2]
  CC50: > 10 µM
Plasmodium falciparum [3]
  EC50: 0.0986 µM

## CCCSc1nc(N)c2c3c(sc2n1)CN(CCC)CC3
Plasmodium falciparum [1]
  EC50: 1.23 µM
[2]
  CC50: > 100 µM
Plasmodium falciparum [3]
  EC50: 1.42 µM

## CCOC(=O)c1cnc2ccc(OC)cc2c1Cl
Plasmodium falciparum [1]
  EC50: 1.25 µM
[2]
  CC50: > 100 µM
Plasmodium falciparum [3]
  EC50: 2.76 µM

## CCOC(=O)C1CCN(C(=S)Nc2ccc3nsnc3c2)CC1
Plasmodium falciparum [1]
  EC50: 0.37 µM
[2]
  CC50: 30.3 µM
Plasmodium falciparum [3]
  EC50: 0.347 µM

## CCC(C)NC(=O)c1cc(NC(=O)c2cccc(Cl)c2)ccc1N1CCCCC1 (stereo unspecified)
Plasmodium falciparum [1]
  EC50: 0.194 µM
[2]
  CC50: 15.4 µM
Plasmodium falciparum [3]
  EC50: > 1.61 µM

## COc1ccccc1C(NC(=O)c1cc(OC)c(OC)c(OC)c1)c1cc(Cl)c2cccnc2c1O (stereo unspecified)
Plasmodium falciparum [1]
  EC50: 1.23 µM
[2]
  CC50: > 100 µM
Plasmodium falciparum [3]
  EC50: 2.2 µM

## CCOC(=O)c1ccc(NC(=O)c2ccc(S(=O)(=O)N3CC(C)CC(C)C3)cc2)cc1 (stereo unspecified)
Plasmodium falciparum [1]
  EC50: 1.24 µM
[2]
  CC50: > 100 µM
Plasmodium falciparum [3]
  EC50: 0.666 µM

## O=c1c2cnn(-c3ccccc3)c2nc(-c2ccccc2F)n1-c1ccc(Br)cc1
Plasmodium falciparum [1]
  EC50: 1.23 µM
[2]
  CC50: > 100 µM
Plasmodium falciparum [3]
  EC50: 6.79 µM

## COc1cccc(Cn2c(C)nc3cc(NC(=O)Nc4ccccc4)c(C)nc32)c1
Plasmodium falciparum [1]
  EC50: 0.163 µM
[2]
  CC50: > 13.1 µM
Plasmodium falciparum [3]
  EC50: > 0.443 µM

## CCN1CCN(c2c(C(=O)c3ccccc3)cnc3cc(OC)c(OC)cc23)CC1
Plasmodium falciparum [1]
  EC50: 1.23 µM
[2]
  CC50: > 100 µM
Plasmodium falciparum [3]
  EC50: 3.02 µM

## CN(C)c1ccc(C=NNc2ncnc3nc[nH]c23)cc1
Plasmodium falciparum [1]
  EC50: 0.138 µM
[2]
  CC50: 11 µM
Plasmodium falciparum [3]
  EC50: 0.167 µM

## COc1ccc(-c2noc(N3CCc4ccccc4C3)n2)cc1
Plasmodium falciparum [1]
  EC50: 0.125 µM
[2]
  CC50: > 10 µM
Plasmodium falciparum [3]
  EC50: 0.2 µM
